Reference: patent US20220087990A1, “APPLICATION OF RIFAMYCIN-QUINOLIZIDONE CONJUGATE MOLECULE AND PHARMACEUTICALLY ACCEPTABLE SALT THEREOF” (priority 2019, published 2022)
≈ marks a conversion by molar mass, not a printed value. Where two headings read alike, the source gives them in different places.

Assays:
[1] = tested on: Staphylococcus aureus ATCC 29213; assay: MIC measured by fluid broth microdilution method (quality control); format: cell-based; details: ATCC29213
[2] = tested on: Staphylococcus aureus ATCC 29213; assay: MIC measured by agar dilution method, quality control strain; format: cell-based; details: strain 100, MSSA QC strain
Procedure: (§1) Spontaneous mutation and minimal inhibit concentration (MIC) tested by agar dilution method, the above compounds are respectively prepared into a stock solution (100X) with a concentration 100 times the highest final concentration in corresponding solvents and used on the same day. Before use, I is further diluted with DMSO; and oxacillin, rifampicin and levofloxacin are further diluted with water.
(§2) Bacterial isolates: Staphylococcus aureus isolates are retrieved from the −80° C. storage room of Micromyx Culture Collection, thawed, plated onto Tryptic Soy Agar+5% sheep blood (Remel; Lenexa, Kans.), and then incubated aerobically at 35° C. overnight. S. aureus ATCC 29213 (MRSA; MMX 0100) was included during testing only for the purpose of quality control. Test Media: The isolates were tested in both the agar dilution MIC assay and the spontaneous mutation assay using Mueller-Hinton Agar (MHA; BD/BBL; Lot No. 6229829 & 4216798). Inocula of each isolate were suspended in cation-adjusted Mueller-Hinton Broth (CAMHB) (BD/BBL; Lot Nos. 5257869 & 6258541). Sodium chloride (Sigma-Aldrich; Lot No. SLBL0434V) was added to CAMHB at a final concentration of 2% when testing oxacillin. Dilutions of bacterial cell suspensions for the purpose of performing colony counts were also made in CAMHB.
(§3) MIC measured by agar dilution method: according to the recommendation from the Clinical and Laboratory Standards Institute (CLSI), the MIC value is measured by the agar dilution method. […] Each test agent was combined with molten MHA agar (50-55° C.) at a ratio of 0.2 mL of 100× test agent to 19.8 mL agar in a sterile tube, mixed gently, and then poured into a sterile petri plate (BD Falcon). Plates were allowed to solidify at room temperature. A 0.5 McFarland standard bacterial suspension was prepared, diluted 1:10 in CAMHB, and transferred to the wells of a stainless steel replicator block before stamping onto plates containing drug, resulting in 10^4 CFU/spot. After allowing the inoculum to dry on the surface of the agar, the plates were inverted, incubated aerobically at 35° C. for 20-24 hr, and inspected for growth.
In parallel experiments, a standard bacterium suspension with a […] turbidity of 0.5 is prepared as a standard inoculum for agar dilution analysis (10^4 CFU/point). […] In this step, the broths and drugs used in the spontaneous mutation analysis are used to confirm that the concentration of the drug stock solution can inhibit the growth of the standard inoculum. The quality of the levofloxacin stock solution is controlled by a standard inoculum and levofloxacin of 8-0.008 μg/mL, and separate agar dilution analysis is performed. […]

[3] = tested on: methicillin-resistant Staphylococcus aureus (MRSA) isolates; assay: MIC measured by agar dilution method (CLSI); format: cell-based; details: for MIC: Staphylococcus aureus, MRSA
Procedure: as §1, §2, §3

[4] = tested on: Staphylococcus aureus ATCC 29213; details: agar dilution; cited from earlier work
[5] = strain 3085, LEV^S RIF^S, agar dilution
[6] = strain 3090, LEV^R RIF^S, agar dilution
[7] = strain 3094, LEV^R RIF^S, agar dilution
[8] = strain 3098, LEV^S RIF^S, agar dilution
[9] = strain 3265, LEV^R RIF^S, agar dilution
[10] = strain 3266, LEVR RIFS, agar dilution
[11] = strain 3270, LEV^R RIF^S, agar dilution
[12] = strain 3271, LEV^R RIF^S, agar dilution
[13] = strain 3277, LEV^S RIF^S, agar dilution
[14] = strain 3278, LEV^S RIF^S, agar dilution
[15] = strain 6312, LEV^R RIF^S, agar dilution
[16] = strain 6313, LEV^R RIF^S, agar dilution
[17] = strain 6315, LEV^R RIF^S, agar dilution
[18] = strain 6498, LEV^R RIF^S, agar dilution
[19] = strain 6501, LEV^R RIF^S, agar dilution
[20] = strain 6505, LEV^R RIF^S, agar dilution
[21] = strain 7771, LEV^R RIF^S, agar dilution
[22] = strain 7772, LEV^S RIF^S, agar dilution
[23] = strain 7773, LEV^R RIF^S, agar dilution
[24] = strain 7774, LEV^R RIF^S, agar dilution
[25] = strain 7775, LEV^R, agar dilution

Row | Compound | MIC [2] | MIC [3, 5] | MIC [3, 6] | MIC [3, 7] | MIC [3, 8] | MIC [3, 9] | MIC [3, 10] | MIC [3, 11] | MIC [3, 12] | MIC [3, 13] | MIC [3, 14] | MIC [3, 15] | MIC [3, 16] | MIC [3, 17] | MIC [3, 18] | MIC [3, 19] | MIC [3, 20] | MIC [3, 21] | MIC [3, 22] | MIC [3, 23] | other results
1 | C[C@H]1COc2c(N3CCN(C)CC3)c(F)cc3c(=O)c(C(=O)O)cn1c23 [Levofloxacin] | 0.25 µg/mL (≈ 0.692 µM) | 0.25 µg/mL (≈ 0.692 µM) | 32 µg/mL (≈ 88.6 µM) | > 64 µg/mL | 0.25 µg/mL (≈ 0.692 µM) | 64 µg/mL (≈ 177 µM) | 64 µg/mL (≈ 177 µM) | 4 µg/mL (≈ 11.1 µM) | 4 µg/mL (≈ 11.1 µM) | 0.25 µg/mL (≈ 0.692 µM) | 0.25 µg/mL (≈ 0.692 µM) | 16 µg/mL (≈ 44.3 µM) | 16 µg/mL (≈ 44.3 µM) | > 64 µg/mL | 8 µg/mL (≈ 22.1 µM) | 8 µg/mL (≈ 22.1 µM) | 4 µg/mL (≈ 11.1 µM) | > 64 µg/mL | 0.25 µg/mL (≈ 0.692 µM) | 8 µg/mL (≈ 22.1 µM) | MIC [1]: 0.25 µg/mL (≈ 0.692 µM); MIC ([3]; read-out: MIC over all strains under test): 0.25 to 64 µg/mL (≈ 0.692 to 177 µM); MIC [3, 24]: > 64 µg/mL; MIC [3, 25]: 16 µg/mL (≈ 44.3 µM)
2 | Cc1onc(-c2ccccc2)c1C(=O)N[C@@H]1C(=O)N2[C@@H]1SC(C)(C)[C@@H]2C(=O)O [Oxacillin] | 0.25 µg/mL (≈ 0.623 µM) | > 8 µg/mL | > 8 µg/mL | > 8 µg/mL | > 8 µg/mL | > 8 µg/mL | > 8 µg/mL | > 8 µg/mL | > 8 µg/mL | > 8 µg/mL | > 8 µg/mL | > 8 µg/mL | > 8 µg/mL | > 8 µg/mL | > 8 µg/mL | > 8 µg/mL | > 8 µg/mL | > 8 µg/mL | > 8 µg/mL | > 8 µg/mL | MIC quality control range of CLSI [4]: 0.12 to 0.5 µg/mL; sensitivity of the strains (resistant / sensitive) [3]: resistant; MIC [3, 24]: > 8 µg/mL; MIC [3, 25]: > 8 µg/mL
